“And” between values parts separate entries of the source, which are not always exact repeats. Equal entries are not always repeated. Where two headings read alike, the source gives them in different places.
Tests used:
S. aureus 8325-4 = assay: S. aureus growth by turbidometry in micro-titre plates; format: cell-based, Staphylococcus aureus; conditions: Staphylococcus aureus, 83254, read-out: IC50 value (50% decrease in terminal absorbance); overnight, absorbance 620 nm
Procedure: Tryptic soy broth (0.18 ml) containing S. aureus 8325-4 (approximately 10^5 cells) was mixed with 20 μl 20% (v/v) DMSO vehicle±compound in the wells of a flat-bottomed clear polystyrene 96-well micro-titre plate. The plate was incubated overnight at 37° C./220 rpm and the absorbance measured at 620 nm the following day.

[1] = target: T1, purified aureolysin type II (Staphylococcus aureus, UniProt P81177); assay: Aureolysin enzyme inhibition assay, type II; format: biochemical
T1 sequence (P81177 1-509): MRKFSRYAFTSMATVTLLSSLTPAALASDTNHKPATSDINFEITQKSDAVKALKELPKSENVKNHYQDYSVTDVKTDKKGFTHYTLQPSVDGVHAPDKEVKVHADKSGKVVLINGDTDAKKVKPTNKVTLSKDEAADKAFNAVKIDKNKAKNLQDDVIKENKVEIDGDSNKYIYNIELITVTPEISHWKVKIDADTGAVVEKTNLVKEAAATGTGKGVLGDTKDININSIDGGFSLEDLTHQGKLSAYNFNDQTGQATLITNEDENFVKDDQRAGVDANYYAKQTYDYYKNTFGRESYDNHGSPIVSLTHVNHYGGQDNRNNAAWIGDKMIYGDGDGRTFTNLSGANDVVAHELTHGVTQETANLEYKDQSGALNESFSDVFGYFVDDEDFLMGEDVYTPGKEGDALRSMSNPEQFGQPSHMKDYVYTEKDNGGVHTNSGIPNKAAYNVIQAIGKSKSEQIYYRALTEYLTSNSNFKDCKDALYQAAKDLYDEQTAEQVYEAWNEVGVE

[2] = target: T2, purified aureolysin type I (Staphylococcus aureus, UniProt P81177); assay: biochemical
T2 construct: purchased BioCentrum Ltd

[3] = target: T3, metalloprotease (aureolysin) activity in Staphylococcus aureus 8325-4 culture supernatants (Staphylococcus aureus, UniProt P81177); assay: Metalloprotease activity in S. aureus culture supernatants; format: biochemical
T3 construct: 4 μl S. aureus culture supernatant; endogenous in cells; host or cells: Staphylococcus aureus 8325-4 (culture supernatant)
Procedure: The culture was then centrifuged to remove the cells and the supernatant stored at −70° C. for subsequent use. […] Activity was expressed as the rate of increase in fluorescence as a function of time.

[4] = system: S. aureus ATCC 27733 or 8325-4; assay: Milk agar plate assay of S. aureus protease activity; format: cell-based, Staphylococcus aureus; conditions: FIG. 2
Procedure: In a second assay for measuring S. aureus protease activity directly, S. aureus ATCC 27733 or 8325-4 was cultured on 10% (v/v) skimmed milk agar plates containing 2% (v/v) DMSO with or without compound. Compounds dissolved in DMSO were incorporated into the solid medium immediately prior to pouring.

human MMP-1 = target: T4, human MMP-1 (Homo sapiens, UniProt P03956); assay: MMP enzyme inhibition assay, MMP-1; format: biochemical; conditions: for IC50: pH 7.5, 37° C., 1 hour
T4 construct: purchased Calbiochem
T4 sequence (P03956 100-469): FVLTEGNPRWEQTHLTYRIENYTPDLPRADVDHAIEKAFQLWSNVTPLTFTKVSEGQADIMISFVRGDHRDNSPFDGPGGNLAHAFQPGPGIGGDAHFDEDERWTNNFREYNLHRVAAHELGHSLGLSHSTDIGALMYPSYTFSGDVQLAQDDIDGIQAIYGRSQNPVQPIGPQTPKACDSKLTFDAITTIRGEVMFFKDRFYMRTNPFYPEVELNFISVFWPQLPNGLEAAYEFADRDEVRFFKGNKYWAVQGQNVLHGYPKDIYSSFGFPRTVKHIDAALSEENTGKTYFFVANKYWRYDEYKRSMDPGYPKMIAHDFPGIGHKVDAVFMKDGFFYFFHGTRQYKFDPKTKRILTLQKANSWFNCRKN

human MMP-2 = target: T5, human MMP-2 (Homo sapiens, UniProt P08253); assay: MMP enzyme inhibition assay, MMP-2; format: biochemical; conditions: for IC50: pH 7.5, 37° C., 1 hour
T5 construct: purchased Calbiochem
T5 sequence (P08253 110-660): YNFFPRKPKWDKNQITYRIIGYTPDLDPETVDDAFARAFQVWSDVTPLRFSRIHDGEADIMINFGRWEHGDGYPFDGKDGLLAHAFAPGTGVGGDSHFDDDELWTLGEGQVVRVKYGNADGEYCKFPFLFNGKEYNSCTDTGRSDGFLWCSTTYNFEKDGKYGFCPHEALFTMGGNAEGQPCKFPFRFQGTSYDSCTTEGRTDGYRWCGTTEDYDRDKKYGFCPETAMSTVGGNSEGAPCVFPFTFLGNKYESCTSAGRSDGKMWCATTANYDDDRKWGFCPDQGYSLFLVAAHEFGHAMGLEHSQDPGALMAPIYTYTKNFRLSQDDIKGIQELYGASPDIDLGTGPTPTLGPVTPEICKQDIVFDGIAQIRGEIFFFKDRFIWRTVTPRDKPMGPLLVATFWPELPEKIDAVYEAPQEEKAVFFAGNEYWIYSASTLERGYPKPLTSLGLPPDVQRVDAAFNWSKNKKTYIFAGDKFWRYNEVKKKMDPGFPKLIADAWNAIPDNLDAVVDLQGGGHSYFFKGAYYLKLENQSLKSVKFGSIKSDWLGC

human MMP-8 = target: T6, human MMP-8 (Homo sapiens, UniProt P22894); assay: MMP enzyme inhibition assay, MMP-8; format: biochemical; conditions: for IC50: pH 7.5, 37° C., 1 hour
T6 construct: purchased Calbiochem
T6 sequence (P22894 101-467): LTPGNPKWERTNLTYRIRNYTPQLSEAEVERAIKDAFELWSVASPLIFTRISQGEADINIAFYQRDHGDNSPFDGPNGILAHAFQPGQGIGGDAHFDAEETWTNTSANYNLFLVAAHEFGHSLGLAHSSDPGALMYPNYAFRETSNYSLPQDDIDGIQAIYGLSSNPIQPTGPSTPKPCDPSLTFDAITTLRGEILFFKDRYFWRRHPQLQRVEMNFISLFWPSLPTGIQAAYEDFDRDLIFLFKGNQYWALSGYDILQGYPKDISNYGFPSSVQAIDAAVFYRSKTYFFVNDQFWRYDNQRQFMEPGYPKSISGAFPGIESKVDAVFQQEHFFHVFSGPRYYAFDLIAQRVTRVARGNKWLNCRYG

human MMP-9 = target: T7, human MMP-9 (Homo sapiens, UniProt P14780); assay: MMP enzyme inhibition assay, MMP-9; format: biochemical; conditions: for IC50: pH 7.5, 37° C., 1 hour
T7 construct: purchased Calbiochem
T7 sequence (P14780 94-707): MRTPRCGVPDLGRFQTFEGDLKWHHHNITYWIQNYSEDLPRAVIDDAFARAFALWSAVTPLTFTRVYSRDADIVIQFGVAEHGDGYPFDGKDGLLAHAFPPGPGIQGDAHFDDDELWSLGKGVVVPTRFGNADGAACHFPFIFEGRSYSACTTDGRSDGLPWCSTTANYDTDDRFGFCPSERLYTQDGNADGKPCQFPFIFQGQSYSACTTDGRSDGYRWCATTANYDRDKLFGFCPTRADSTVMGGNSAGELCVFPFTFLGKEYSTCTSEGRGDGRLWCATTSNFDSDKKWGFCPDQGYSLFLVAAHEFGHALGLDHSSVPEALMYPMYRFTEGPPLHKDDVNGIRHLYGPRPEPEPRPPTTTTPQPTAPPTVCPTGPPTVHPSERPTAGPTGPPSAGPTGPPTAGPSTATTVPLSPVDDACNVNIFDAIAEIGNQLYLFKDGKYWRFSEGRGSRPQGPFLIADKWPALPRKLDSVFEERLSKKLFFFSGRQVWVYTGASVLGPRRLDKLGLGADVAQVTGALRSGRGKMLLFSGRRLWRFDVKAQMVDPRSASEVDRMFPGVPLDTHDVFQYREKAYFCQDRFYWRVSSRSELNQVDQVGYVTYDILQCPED

aureolysin = aureolysin (Staphylococcus aureus, UniProt P81177); assay: Inhibition of aureolysin-mediated pro-uPA activation; conditions: for Urokinase activity after pro-uPA activation: Expt. 2, Compound 13 20 μM, pH 5.6
From the text: Under these conditions the extent of pro-uPA cleavage as assessed by uPA activity was directly proportional to the concentration of aureolysin in the assay.

[5] = system: Human skin epidermal keratinocytes; assay: Keratinocyte activation, IL-8 production; format: cell-based; conditions: 48 hours, aureolysin 50 μg/ml
From the text: Activated keratinocytes produce IL-8, a proinflammatory chemokine. Many bacterial products cause the activation of keratinocytes. Aureolysin may be evaluated for its effects on IL-8 production by keratinocytes. Human skin epidermal keratinocytes (TCS Cellworks) are maintained as per instructions. Proliferating cultures are trypsinised, harvested, treated with a trypsin inhibitor and resuspended in growth medium at approximately 50,000 cells/well, to provide confluent monolayers in 96 well plates. Cells are incubated overnight at 37° C. at 5% CO2 to allow recovery, the spent medium aspirated from the wells and replaced with fresh growth medium. The cells are incubated at 37° C. at 5% CO2 for a further 24 or 48 hours with aureolysin or buffer control.
The supernatants are removed from each well and the concentration of IL-8 is determined using a human IL-8 ELISA development kit from R&D systems (Catalog Number: DY208) using the manufacturers instructions.
In these experiments, the cells are incubated at 37° C. at 5% CO2 for 48 hours with aureolysin or buffer control. Poly IC and lipoteichoic acid (LTA), which stimulate IL-8 production in keratinocytes were used as positive controls.

[6] = pH 6.8, 37° C., 1 hour; read-out: IC50 value Aureolysin type II

CCCCC[C@H](CC(=O)NO)C(=O)N[C@H](C(=O)N1CCC[C@H]1CO)C(C)C [Actinonin, actinonin, reference compound]
IC50 (S. aureus 8325-4): 2.6 µM

CNC(=O)[C@H](Cc1c[nH]c2ccccc12)NC(=O)[C@@H](CC(=O)NO)CC(C)C [Compound 1, ilomastat]
IC50 [1, 6]: 0.43 µM
IC50 [2]: 0.26 µM
IC50 [3]: 0.57 µM

CNC(=O)[C@@H](NC(=O)[C@H](CC(C)C)[C@H](O)C(=O)NO)C(C)(C)C [Compound 3, marimastat]
inhibition of proteolytic activity, zone of clearance of milk proteins (in words) [4]: inhibition of proteolytic activity

CC(C)C[C@@H](C(=O)N[C@H](C(=O)N(C)C)C(C)(C)C)[C@H](O)C(=O)NO [Compound 5]
IC50 (human MMP-1): 0.011 µM
IC50 [1, 6]: 41 µM
IC50 [2]: 27 µM
IC50 (human MMP-2): 0.0077 µM
IC50 (human MMP-8): 0.0039 µM
IC50 [3]: 44 µM
IC50 (human MMP-9): 0.03 µM

CO[C@H](C(=O)NO)[C@@H](CC(C)C)C(=O)N[C@H](C(=O)Nc1ccccn1)C(C)(C)C [Compound 7, solimastat]
IC50 (human MMP-1): 0.0033 µM
IC50 [1, 6]: 3.5 µM
IC50 [2]: 2.2 µM
IC50 (human MMP-2): 0.0032 µM
IC50 (human MMP-8): 0.0017 µM
IC50 [3]: 4.5 µM
IC50 (human MMP-9): 0.0051 µM

CC(C)C[C@@H](C(=O)N[C@H](C(=O)Nc1ccccn1)C(C)(C)C)[C@H](O)C(=O)NO [Compound 9]
IC50 (human MMP-1): 0.0031 µM
IC50 [1, 6]: 2.4 µM
IC50 [2]: 1.5 µM
IC50 (human MMP-2): 0.0018 µM
IC50 (human MMP-8): 0.0017 µM
IC50 [3]: 2.9 µM
IC50 (human MMP-9): 0.0041 µM

CNC(=O)C(CCc1ccccc1)NC(=O)C(CC(=O)NO)CC(C)C (stereo not shown) [Compound 13]
IC50 (human MMP-1): 0.0056 µM
IC50 [1, 6]: 0.69 µM
IC50 [2]: 0.33 µM
IC50 (human MMP-2): 0.0011 µM
Urokinase activity after pro-uPA activation (aureolysin; aureolysin 0 μg/ml): 0.11 A405/0.5 h/μg
Urokinase activity after pro-uPA activation (aureolysin; aureolysin 0.1 μg/ml): 0.36 A405/0.5 h/μg
Urokinase activity after pro-uPA activation (aureolysin; aureolysin 0.3 μg/ml): 0.52 A405/0.5 h/μg
Urokinase activity after pro-uPA activation (aureolysin; aureolysin 0.8 μg/ml): 0.96 A405/0.5 h/μg
inhibition at 20 µM (aureolysin; pH 5.6, read-out: inhibition of aureolysin activation of pro-uPA): ≥ 82%
IC50 (human MMP-8): 0.0016 µM
IC50 [3]: 0.69 µM
IC50 (human MMP-9): 0.0019 µM

COc1ccc(S(=O)(=O)N(CC(=O)NO)CC(C)C)cc1 [Compound 14]
IC50 ([1]; read-out: IC50 value Aureolysin type II; pH 6.8, 37° C., 1 hour): 2.5 µM
IC50 [2]: 1 µM
IC50 (human MMP-2): 0.0046 µM
IC50 (human MMP-8): 0.021 µM
IC50 [3]: 3.6 µM
IC50 (human MMP-9): 0.01 µM

CC(C)C[C@H](NP(=O)(O)O[C@@H]1O[C@@H](C)[C@H](O)[C@@H](O)[C@H]1O)C(=O)N[C@@H](Cc1c[nH]c2ccccc12)C(=O)O [Compound 15, phosphoramidon]
inhibition at 2.7 µM (human MMP-1; @ 2.7 μM): 0%
IC50 [1, 6]: 2.3 µM
IC50 [2]: 2.8 µM
inhibition at 2.7 µM (human MMP-2; @ 2.7 μM): 0%
inhibition at 2.7 µM (human MMP-8; @ 2.7 μM): 0%
IC50 [3]: 3.3 µM
inhibition at 2.7 µM (human MMP-9; @ 2.7 μM): 0%

CNC(=O)[C@H](CCc1ccccc1)NC(=O)[C@H](CC(=O)NO)CC(C)C [Compound 16, (S)—N4-hydroxy-2-isobutyl-N1-((S)-1-(methylamino)-1-oxo-4-phenylbutan-2-yl)succinamide]
IC50 (human MMP-1): 6.2 µM
IC50 [1, 6]: 0.093 µM
IC50 [2]: 0.057 µM
IC50 (human MMP-2): 2.1 µM
IC50 (human MMP-8): 1.6 µM
IC50 [3]: 0.095 µM
IC50 (human MMP-9): 2 µM

CNC(=O)[C@H](CCc1ccccc1)NC(=O)[C@@H](CC(=O)NO)CC(C)C [Compound 17, (R)—N4-hydroxy-2-isobutyl-N1-((S)-1-(methylamino)-1-oxo-4-phenylbutan-2-yl)succinamide]
IC50 (human MMP-1): 0.017 µM
IC50 [1, 6]: 2.3 µM
IC50 [2]: 1.2 µM
IC50 (human MMP-2): 0.0024 µM
IC50 (human MMP-8): 0.0044 µM
IC50 [3]: 2.3 µM
IC50 (human MMP-9): 0.0059 µM

Poly IC
IL-8 ± SE [5]: 282 pg/mL and 282 ± 0.9 pg/mL

lipoteichoic acid [LTA]
IL-8 ± SE [5]: 454 pg/mL and 454 ± 61.0 pg/mL
